Assays:
Assay type in all cases: biochemical
[1] = target: PKA (Homo sapiens, UniProt P17612); test: In vitro inhibitory activity assay for PKA (ADP-Glo), reported as selectivity ratio vs ROCK2; conditions: Ki PKA divided by Ki ROCK2 (method B)
Method: In vitro inhibitory activity assay description for PKA
The effectiveness of compounds of the present invention to inhibit PKA activity can be determined in a […], assay containing 40 mM Tris pH7.5, 20 mM MgCl2 0.1 mg/mL BSA, 50 μM DTT and 260 μM peptide substrate (kemptide) using an ADP-Glo kit (Promega). Compounds were dissolved in DMSO such that the final concentration of DMSO was 1% in the assay. All reactions/incubations are performed at 25° C. Compound and PKA enzyme (6 μl) were mixed and incubated for 30 min. Reactions were initiated by addition of ATP (4 μL) such that the final concentration of ATP in the assay was 10 μM. After a 30 minute incubation 10 μL of ADP-Glo Reagent was added and after a further 1 hour incubation 20 μL of Kinase Detection Buffer was added and the mixture incubated for a further 45 minutes. The luminescent signal was measured on a luminometer. […] Compounds were tested in dose-response format and the inhibition of kinase activity was calculated at each concentration of compound. To determine the IC50 (concentration of compound required to inhibit 50% of the enzyme activity) data were fit to a plot of % inhibition vs Log10 compound concentration using a sigmoidal fit with a variable slope and fixing the maximum to 100% and the minimum to 0%. To determine the Ki values the Cheng-Prusoff equation was utilized (Ki=IC50/(1+[S]/Km).
In vitro inhibitory activities for PKA were reported as selectivity ratio vs. ROCK2. Selectivity ratio PKA/ROCK2 was calculated by dividing the Ki value for PKA by Ki value of ROCK2 (method B) and reported into table 1.

[2] = target: T1, ROCK1 (Homo sapiens, UniProt Q13464); test: In vitro inhibitory activity assay ROCK1 (Method B, ADP-Glo, 200 μM ATP); conditions: ATP 200 μM, read-out: Method B ROCK 1 (Ki)
T1 sequence (Q13464 whole entry): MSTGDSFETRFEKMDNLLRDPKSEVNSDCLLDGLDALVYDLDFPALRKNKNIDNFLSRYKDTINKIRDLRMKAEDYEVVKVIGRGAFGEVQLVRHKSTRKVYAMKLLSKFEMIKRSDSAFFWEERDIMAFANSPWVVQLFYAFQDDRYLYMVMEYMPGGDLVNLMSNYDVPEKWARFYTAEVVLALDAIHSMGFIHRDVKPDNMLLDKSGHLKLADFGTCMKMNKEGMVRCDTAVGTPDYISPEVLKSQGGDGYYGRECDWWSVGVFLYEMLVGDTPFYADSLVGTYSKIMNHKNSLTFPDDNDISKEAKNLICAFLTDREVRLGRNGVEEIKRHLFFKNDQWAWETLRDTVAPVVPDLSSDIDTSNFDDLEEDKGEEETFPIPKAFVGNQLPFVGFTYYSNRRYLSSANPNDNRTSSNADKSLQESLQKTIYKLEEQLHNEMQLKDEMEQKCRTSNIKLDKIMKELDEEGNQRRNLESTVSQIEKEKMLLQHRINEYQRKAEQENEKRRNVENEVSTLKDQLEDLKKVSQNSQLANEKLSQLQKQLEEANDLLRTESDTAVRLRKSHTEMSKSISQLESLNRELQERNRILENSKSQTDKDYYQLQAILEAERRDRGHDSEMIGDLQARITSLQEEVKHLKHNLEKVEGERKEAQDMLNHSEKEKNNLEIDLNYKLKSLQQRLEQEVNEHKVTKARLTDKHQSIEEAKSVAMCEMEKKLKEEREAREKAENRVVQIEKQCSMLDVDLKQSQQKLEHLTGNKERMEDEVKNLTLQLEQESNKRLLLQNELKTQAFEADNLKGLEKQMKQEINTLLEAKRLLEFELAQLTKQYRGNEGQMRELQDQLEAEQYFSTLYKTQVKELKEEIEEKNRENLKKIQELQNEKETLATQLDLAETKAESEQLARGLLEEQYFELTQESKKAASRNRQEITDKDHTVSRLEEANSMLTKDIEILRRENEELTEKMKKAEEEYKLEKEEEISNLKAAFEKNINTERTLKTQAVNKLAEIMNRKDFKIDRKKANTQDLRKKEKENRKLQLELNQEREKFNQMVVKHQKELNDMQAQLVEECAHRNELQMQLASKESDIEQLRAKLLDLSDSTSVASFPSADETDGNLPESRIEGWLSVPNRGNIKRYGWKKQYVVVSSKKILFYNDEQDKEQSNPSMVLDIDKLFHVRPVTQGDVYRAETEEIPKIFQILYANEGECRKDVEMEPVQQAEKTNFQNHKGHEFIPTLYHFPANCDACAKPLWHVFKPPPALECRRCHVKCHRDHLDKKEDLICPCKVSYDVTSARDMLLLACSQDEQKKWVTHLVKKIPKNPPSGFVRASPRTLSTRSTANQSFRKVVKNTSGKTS
Method: (§1) In Vitro Inhibitory Activity Assay Description ROCK1 and ROCK2
(§2) The effectiveness of compounds of the present invention to inhibit Rho kinase activity can be determined in a 10 μl assay containing 40 mM Tris pH7.5, 20 mM MgCl2 0.1 mg/mL BSA, 50 μM DTT and 2.5 μM peptide substrate (Myelin Basic Protein) using an ADP-Glo kit (Promega). Compounds were dissolved in DMSO such that the final concentration of DMSO was 1% in the assay. All reactions/incubations are performed at 25° C. Compound (2 μL) and either Rho kinase 1 or 2 (4 μl) were mixed and incubated for 30 min. Reactions were initiated by addition of ATP (4 μL) such that the final concentration of ATP in the assay was 200 μM. After a 1 hour incubation 10111 of ADP-Glo Reagent was added and after a further 45 minute incubation 20 μL of Kinase Detection Buffer was added and the mixture incubated for a further 30 minutes. The luminescent signal was measured on a luminometer. […] Compounds were tested in dose-response format and the inhibition of kinase activity was calculated at each concentration of compound. To determine the IC50 (concentration of compound required to inhibit 50% of the enzyme activity) data were fit to a plot of % inhibition vs Log10 compound concentration using a sigmoidal fit with a variable slope and fixing the maximum to 100% and the minimum to 0%. To determine the Ki values the Cheng-Prusoff equation was utilized (Ki=IC50/(1[S]/Km).

[3] = target: T2, ROCK2 (Homo sapiens, UniProt O75116); test: In vitro inhibitory activity assay ROCK2 (Method B, ADP-Glo, 200 μM ATP); conditions: ATP 200 μM, read-out: Method B ROCK 2 (Ki)
T2 sequence (O75116 whole entry): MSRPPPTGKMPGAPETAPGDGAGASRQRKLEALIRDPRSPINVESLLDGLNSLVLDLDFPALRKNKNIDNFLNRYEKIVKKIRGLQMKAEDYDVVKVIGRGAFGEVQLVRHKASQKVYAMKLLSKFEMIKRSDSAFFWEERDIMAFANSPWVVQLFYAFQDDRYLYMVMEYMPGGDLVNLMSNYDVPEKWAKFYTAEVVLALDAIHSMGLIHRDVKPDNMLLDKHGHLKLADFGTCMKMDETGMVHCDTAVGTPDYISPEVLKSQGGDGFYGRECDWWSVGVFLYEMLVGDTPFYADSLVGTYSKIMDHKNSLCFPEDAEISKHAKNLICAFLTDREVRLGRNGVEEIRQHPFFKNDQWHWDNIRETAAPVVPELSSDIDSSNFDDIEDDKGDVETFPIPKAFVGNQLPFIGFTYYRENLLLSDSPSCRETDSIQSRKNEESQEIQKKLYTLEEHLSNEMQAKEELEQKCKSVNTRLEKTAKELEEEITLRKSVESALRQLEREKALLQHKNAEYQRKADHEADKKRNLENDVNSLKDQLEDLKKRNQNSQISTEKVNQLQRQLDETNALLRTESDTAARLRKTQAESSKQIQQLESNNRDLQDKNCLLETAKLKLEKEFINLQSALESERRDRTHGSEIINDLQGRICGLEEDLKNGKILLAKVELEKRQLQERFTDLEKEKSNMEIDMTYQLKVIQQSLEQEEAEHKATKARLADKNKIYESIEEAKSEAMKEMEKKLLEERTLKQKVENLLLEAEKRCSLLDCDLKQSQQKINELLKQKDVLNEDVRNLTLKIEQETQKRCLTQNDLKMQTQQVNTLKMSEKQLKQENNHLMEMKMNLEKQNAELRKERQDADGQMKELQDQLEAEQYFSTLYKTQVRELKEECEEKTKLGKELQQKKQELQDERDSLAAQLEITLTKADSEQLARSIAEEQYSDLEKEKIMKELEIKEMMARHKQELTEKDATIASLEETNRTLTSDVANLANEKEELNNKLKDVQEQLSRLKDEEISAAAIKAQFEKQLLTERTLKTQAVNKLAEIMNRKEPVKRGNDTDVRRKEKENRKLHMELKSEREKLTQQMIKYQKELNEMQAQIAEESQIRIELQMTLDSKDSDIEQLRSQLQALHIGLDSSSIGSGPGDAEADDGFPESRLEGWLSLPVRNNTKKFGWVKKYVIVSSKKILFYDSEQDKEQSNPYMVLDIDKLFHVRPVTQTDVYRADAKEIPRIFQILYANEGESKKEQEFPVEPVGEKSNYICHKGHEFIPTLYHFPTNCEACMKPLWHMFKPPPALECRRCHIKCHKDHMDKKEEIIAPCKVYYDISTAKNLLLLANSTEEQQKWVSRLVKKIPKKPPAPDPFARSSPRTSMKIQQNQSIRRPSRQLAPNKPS
Method: as §1, §2

[4] = target: T2, ROCK2; test: In vitro inhibitory activity assay ROCK2 (Method A, ADP-Glo, 10 μM ATP); conditions: ATP 10 μM, read-out: Method A ROCK 2 (Ki)
Method: (§3) In vitro inhibitory activity assay description ROCK1 and ROCK2
as §2, with “(2 uL)” for “(2 μL)”, “was 10” for “was 200”, “incubation […]” for “incubation 10111”, “45 minutes” for “45 minute”, “20 uL” for “20 μL”, “utilized (Ki=IC50/(1+[S]/Km).” for “utilized (Ki=IC50/(1[S]/Km).”

[5] = target: T1, ROCK1; test: In vitro inhibitory activity assay ROCK1 (Method A, ADP-Glo, 10 μM ATP); conditions: ATP 10 μM, read-out: Method A ROCK 1 (Ki)
Method: as §3
as §2, with “(2 uL)” for “(2 μL)”, “was 10” for “was 200”, “incubation […]” for “incubation 10111”, “45 minutes” for “45 minute”, “20 uL” for “20 μL”, “utilized (Ki=IC50/(1+[S]/Km).” for “utilized (Ki=IC50/(1[S]/Km).”

Row | Structure (SMILES) | Ratio Ki PKA/ROCK2 [1] | Ki [2] | Ki [3] | Ki [4] | Ki [5]
1 | O=C(NCC1CCCCO1)c1cccc(CNc2ncc(-c3cn[nH]c3)c3c2CCO3)c1 (racemic) [Example 11, 3-(((7-(1H-pyrazol-4-yl)-2,3-dihydrofuro[3,2-c]pyridin-4-yl)amino)methyl)-N-((tetrahydro-2H-pyran-2-yl)methyl)benzamide] | *** (ratio≥10) | ≤ 3 nM | ≤ 3 nM |  | 
2 | O=C(NCC1CCCCO1)c1cccc(CNc2ncc(-c3cn[nH]c3)c3c2CCO3)c1 (single isomer, unassigned; enantiomer 1) [Example 55, 3-(((7-(1H-pyrazol-4-yl)-2,3-dihydrofuro[3,2-c]pyridin-4-yl)amino)methyl)-N-((tetrahydro-2H-pyran-2-yl)methyl)benzamide (Enantiomer 1)] | *** (ratio≥10) | ≤ 3 nM | ≤ 3 nM |  | 
3 | O=C(NC1CCN(C2CC2)CC1)c1cccc(CNc2ncc(-c3cn[nH]c3)c3c2CCO3)c1 [Example 1, 3-(((7-(1H-Pyrazol-4-yl)-2,3-dihydrofuro[3,2-c]pyridin-4-yl)amino)methyl)-N-(1-cyclopropylpiperidin-4-yl)benzamide] | *** (ratio≥10) | ≤ 3 nM | ≤ 3 nM |  | 
4 | O=C(NCc1ccccn1)c1cccc(CNc2ncc(-c3cn[nH]c3)c3c2CCO3)c1 [Example 4, 3-(((7-(1H-pyrazol-4-yl)-2,3-dihydrofuro[3,2-c]pyridin-4-yl)amino)methyl)-N-(pyridin-2-ylmethyl)benzamide] |  | 3 to 30 nM | 3 to 30 nM |  | 
5 | CN(C)CCn1ncc2cc(C(=O)Nc3cccc(CNc4ncc(-c5cn[nH]c5)c5c4CCO5)c3)ccc21 [Example 43, N-(3-(((7-(1H-pyrazol-4-yl)-2,3-dihydrofuro[3,2-c]pyridin-4-yl)amino)methyl)phenyl)-1-(2-(dimethylamino)ethyl)-1H-indazole-5-carboxamide] |  | ≤ 3 nM | ≤ 3 nM | ≤ 3 nM | ≤ 3 nM
6 | CN1CCC(n2ncc3cc(C(=O)Nc4cccc(CNc5ncc(-c6cn[nH]c6)c6c5CCO6)c4)ccc32)CC1 [Example 44, N-(3-(((7-(1H-pyrazol-4-yl)-2,3-dihydrofuro[3,2-c]pyridin-4-yl)amino)methyl)phenyl)-1-(1-methylpiperidin-4-yl)-1H-indazole-5-carboxamide] |  | ≤ 3 nM | ≤ 3 nM | ≤ 3 nM | ≤ 3 nM
7 | CN1CCc2cc(C(=O)Nc3cccc(CNc4ncc(-c5cn[nH]c5)c5c4CCO5)c3)ccc2C1 [Example 45, N-(3-(((7-(1H-pyrazol-4-yl)-2,3-dihydrofuro[3,2-c]pyridin-4-yl)amino)methyl)phenyl)-2-methyl-1,2,3,4-tetrahydroisoquinoline-6-carboxamide] |  | ≤ 3 nM | ≤ 3 nM | ≤ 3 nM | ≤ 3 nM
8 | O=C(Nc1cccc(CNc2ncc(-c3cn[nH]c3)c3c2CCO3)c1)c1ccc2c(cnn2CCN2CCOCC2)c1 [Example 46, N-(3-(((7-(1H-pyrazol-4-yl)-2,3-dihydrofuro[3,2-c]pyridin-4-yl)amino)methyl)phenyl)-1-(2-morpholinoethyl)-1H-indazole-5-carboxamide] |  | ≤ 3 nM | ≤ 3 nM | ≤ 3 nM | ≤ 3 nM
9 | O=C(Nc1cccc(CNc2ncc(-c3cn[nH]c3)c3c2CCO3)c1)c1ncc(CN2CCCC2)s1 [Example 48, N-(3-(((7-(1H-pyrazol-4-yl)-2,3-dihydrofuro[3,2-c]pyridin-4-yl)amino)methyl)phenyl)-5-(pyrrolidin-1-ylmethyl)thiazole-2-carboxamide] |  | ≤ 3 nM | ≤ 3 nM | ≤ 3 nM | ≤ 3 nM
10 | O=C(NC1CCN(Cc2ccccc2)CC1)c1cccc(CNc2ncc(-c3cn[nH]c3)c3c2CCO3)c1 [Example 54, 3-(((7-(1H-pyrazol-4-yl)-2,3-dihydrofuro[3,2-c]pyridin-4-yl)amino)methyl)-N-(1-benzylpiperidin-4-yl)benzamide] |  |  |  | ≤ 3 nM | ≤ 3 nM

Further lines, results first:

Row | Ratio Ki PKA/ROCK2 [1] | Ki [2] | Ki [3] | Ki [4] | Ki [5] | Structure (SMILES)
11 | *** (ratio≥10) | ≤ 3 nM | ≤ 3 nM |  |  | O=C(NCC1CCCCO1)c1cccc(CNc2ncc(-c3cn[nH]c3)c3c2CCO3)c1 (single isomer, unassigned; enantiomer 2) [Example 56, 3-(((7-(1H-pyrazol-4-yl)-2,3-dihydrofuro[3,2-c]pyridin-4-yl)amino)methyl)-N-((tetrahydro-2H-pyran-2-yl)methyl)benzamide (Enantiomer 2)]
12 |  | 3 to 30 nM | ≤ 3 nM |  |  | COCCNC(=O)c1cccc(CNc2ncc(-c3cn[nH]c3)c3c2CCO3)c1 [Example 7, 3-(((7-(1H-pyrazol-4-yl)-2,3-dihydrofuro[3,2-c]pyridin-4-yl)amino)methyl)-N-(2-methoxyethyl)benzamide]
13 |  | 3 to 30 nM | 3 to 30 nM |  |  | O=C(NCc1cncnc1)c1cccc(CNc2ncc(-c3cn[nH]c3)c3c2CCO3)c1 [Example 9, 3-(((7-(1H-pyrazol-4-yl)-2,3-dihydrofuro[3,2-c]pyridin-4-yl)amino)methyl)-N-(pyrimidin-5-ylmethyl)benzamide]
14 |  | 3 to 30 nM | ≤ 3 nM |  |  | O=C(NCc1ccon1)c1cccc(CNc2ncc(-c3cn[nH]c3)c3c2CCO3)c1 [Example 13, 3-(((7-(1H-pyrazol-4-yl)-2,3-dihydrofuro[3,2-c]pyridin-4-yl)amino)methyl)-N-(isoxazol-3-ylmethyl)benzamide]
15 |  | ≤ 3 nM | ≤ 3 nM |  |  | O=C(NCc1cscn1)c1cccc(CNc2ncc(-c3cn[nH]c3)c3c2CCO3)c1 [Example 14, 3-(((7-(1H-pyrazol-4-yl)-2,3-dihydrofuro[3,2-c]pyridin-4-yl)amino)methyl)-N-(thiazol-4-ylmethyl)benzamide]
16 |  |  |  | ≤ 3 nM | ≤ 3 nM | O=C(NCc1ccncc1)c1cccc(CNc2ncc(-c3cn[nH]c3)c3c2CCO3)c1 [Example 53, 3-(((7-(1H-pyrazol-4-yl)-2,3-dihydrofuro[3,2-c]pyridin-4-yl)amino)methyl)-N-(pyridin-4-ylmethyl)benzamide]
17 |  | > 30 nM | > 30 nM |  |  | CNC(=O)c1cccc(CNc2ncc(-c3cncs3)c3c2CCO3)c1 [Example A, N-Methyl-3-(((7-(thiazol-5-yl)-2,3-dihydrofuropyridin-4-yl)amino)methyl)benzamide, reference compound]
18 |  | > 30 nM | 3 to 30 nM |  |  | CNC(=O)c1cccc(CNc2ncc(-c3cnco3)c3c2CCO3)c1 [Example B, N-Methyl-3-(((7-(oxazol-5-yl)-2,3-dihydrofuro[3,2-c]pyridin-4-yl)amino)methyl)benzamide, reference compound]

Source: US20240082223A1, “DIHYDROFUROPYRIDINE DERIVATIVES AS RHO- KINASE INHIBITORS” (CHIESI FARMACEUTICI S.P.A., priority 2020, published 2024)
